Consider eight compounds from ChEMBL document CHEMBL3860045 (Bioorg Med Chem Lett, 2016).

Bounds are passed on as bounds.

Series [1] concerns the target T1, High affinity choline transporter 1 (Homo sapiens) (UniProt Q9GZV3).
T1 sequence (whole entry): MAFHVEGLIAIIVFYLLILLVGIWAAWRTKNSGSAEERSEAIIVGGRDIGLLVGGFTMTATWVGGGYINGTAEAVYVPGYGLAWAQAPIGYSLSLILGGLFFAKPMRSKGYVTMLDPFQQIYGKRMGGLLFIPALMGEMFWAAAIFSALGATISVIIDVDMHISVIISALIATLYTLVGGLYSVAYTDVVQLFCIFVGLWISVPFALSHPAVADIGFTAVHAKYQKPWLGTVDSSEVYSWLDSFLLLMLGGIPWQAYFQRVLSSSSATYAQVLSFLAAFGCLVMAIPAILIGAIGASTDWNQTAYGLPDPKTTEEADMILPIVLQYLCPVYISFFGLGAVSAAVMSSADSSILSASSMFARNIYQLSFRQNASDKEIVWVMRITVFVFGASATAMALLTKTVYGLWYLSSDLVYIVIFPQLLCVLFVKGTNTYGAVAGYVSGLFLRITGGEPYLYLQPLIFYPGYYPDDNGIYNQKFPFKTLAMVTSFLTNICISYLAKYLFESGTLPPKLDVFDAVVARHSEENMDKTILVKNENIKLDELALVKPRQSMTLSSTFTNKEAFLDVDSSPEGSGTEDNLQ
The experiment in a line: Inhibition of [3H]choline uptake at human choline transporter expressed in HEK293 cells at 5 uM preincubated for 15 mins followed by [3H]choline addition measured after 10 to 15 mins by scintillation proximity assay relative to control. It is filed as cell-based. A general note: In a scintillation proximity assay essentially only radioactivity close to the scintillant gives light.

Series [2] has as its target T2, High affinity choline transporter 1 (Homo sapiens, UniProt Q9GZV3).
T2 sequence (Q9GZV3 whole entry): T1 sequence (whole entry)
The experiment in a line: Inhibition of [3H]choline uptake at human choline transporter expressed in HEK293 cells preincubated for 15 mins followed by [3H]choline addition measured after 10 to 15 mins by scintillation proximity assay. It is filed as cell-based.

Series [3] concerns Rattus norvegicus. The experiment in a line: Cognitive enhancing effect in ip dosed rat assessed as increase in recognition index treated 30 mins prior test measured after 24 hrs by novel object recognition test relative to vehicle-treated control. Type of series: functional, organism-based.
Series [4] can be described thus: Fraction unbound in rat plasma after 4 hrs by LC-MS/MS based equilibrium dialysis method. Type of series: ADME, cell-free. For orientation: In equilibrium dialysis free small molecules cross a membrane that holds back macromolecules.
The nature of series [5]: Fraction unbound in human plasma after 4 hrs by LC-MS/MS based equilibrium dialysis method. Type of series: ADME, cell-free.
Series [6] can be described thus: Volume of distribution at steady state in cannulated Sprague-Dawley rat at 1 mg/kg, iv up to 24 hrs by LC-MS/MS analysis. It is filed as ADME, organism-based. Conditions: in vivo.
Series [7] can be described thus: Ratio of drug level in cannulated Sprague-Dawley rat brain to plasma at 1 mg/kg, iv. It is filed as ADME, organism-based.
Series [8] in a line: Half life in cannulated Sprague-Dawley rat plasma at 1 mg/kg, iv by LC-MS/MS analysis. Type of series: ADME, organism-based.
The nature of series [9]: Intrinsic clearance in human liver microsomes at 1 uM preincubated with microsomes followed by NADPH addition measured up to 45 mins by LC-MS/MS analysis. It is filed as ADME. Conditions: read-out: CLH. On the technique in general: Microsomes from liver hold many membrane-bound enzymes, among them those of drug oxidation.
Series [10] can be described thus: Intrinsic clearance in rat liver microsomes at 1 uM preincubated with microsomes followed by NADPH addition measured up to 45 mins by LC-MS/MS analysis. It is filed as ADME. The settings on record: read-out: CLH.
A short description of series [11]: Fraction unbound in rat brain after 4 hrs by LC-MS/MS based equilibrium dialysis method. It is filed as ADME, tissue-based.
A short description of series [12]: Plasma concentration in cannulated Sprague-Dawley rat at 1 mg/kg, iv after […] by LC-MS/MS analysis. It is filed as ADME, organism-based.
The nature of series [13]: Drug uptake in cannulated Sprague-Dawley rat brain at 1 mg/kg, iv administered twice at 24 hrs interval followed by 0.75 min of isoflurane treatment post 15 min second dose measured after […] by LC-MS/MS analysis. Type of series: ADME, organism-based. Conditions: read-out: Drug uptake.
For series [14], the target named is Cytochrome P450 2D6 (Homo sapiens, UniProt P10635). As to the kind of experiment: Inhibition of human CYP2D6. It is filed as ADME.
Sequence of Cytochrome P450 2D6 (P10635 whole entry): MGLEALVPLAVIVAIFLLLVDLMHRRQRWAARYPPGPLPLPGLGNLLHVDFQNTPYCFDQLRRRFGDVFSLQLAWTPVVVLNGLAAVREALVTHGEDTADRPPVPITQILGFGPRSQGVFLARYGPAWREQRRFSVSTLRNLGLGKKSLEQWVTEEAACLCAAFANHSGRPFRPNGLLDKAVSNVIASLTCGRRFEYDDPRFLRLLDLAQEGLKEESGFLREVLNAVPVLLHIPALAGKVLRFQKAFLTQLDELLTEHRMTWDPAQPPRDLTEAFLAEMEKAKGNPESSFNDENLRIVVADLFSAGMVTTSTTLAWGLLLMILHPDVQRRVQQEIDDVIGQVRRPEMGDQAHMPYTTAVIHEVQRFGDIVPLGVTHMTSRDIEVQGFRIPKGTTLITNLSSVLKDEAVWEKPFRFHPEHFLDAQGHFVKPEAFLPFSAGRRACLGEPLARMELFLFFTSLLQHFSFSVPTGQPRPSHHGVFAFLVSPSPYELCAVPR
The target of series [15] is T3, Cytochrome P450 1A2 (Homo sapiens, UniProt P05177).
T3 sequence (P05177 whole entry): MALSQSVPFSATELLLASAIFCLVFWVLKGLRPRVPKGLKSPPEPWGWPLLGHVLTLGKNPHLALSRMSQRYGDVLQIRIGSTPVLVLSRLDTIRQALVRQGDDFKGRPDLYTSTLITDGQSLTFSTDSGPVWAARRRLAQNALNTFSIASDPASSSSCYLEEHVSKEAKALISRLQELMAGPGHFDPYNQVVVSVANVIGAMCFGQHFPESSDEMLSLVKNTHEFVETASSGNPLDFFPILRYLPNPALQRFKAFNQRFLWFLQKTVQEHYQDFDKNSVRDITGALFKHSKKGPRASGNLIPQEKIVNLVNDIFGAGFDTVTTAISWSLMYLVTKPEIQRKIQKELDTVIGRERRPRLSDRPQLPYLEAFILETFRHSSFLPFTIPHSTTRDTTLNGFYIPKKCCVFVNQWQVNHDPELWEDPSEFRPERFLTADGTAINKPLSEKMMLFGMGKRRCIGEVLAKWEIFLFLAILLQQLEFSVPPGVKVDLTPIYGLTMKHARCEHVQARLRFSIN
As to the kind of experiment: Inhibition of human CYP1A2. It is filed as ADME.

Series [16] addresses Cytochrome P450 3A4 (Homo sapiens, UniProt P08684). As to the kind of experiment: Inhibition of human CYP3A4. It is filed as ADME.
Series [17] is described as follows: Plasma clearance in cannulated Sprague-Dawley rat at 1 mg/kg, iv up to 24 hrs by LC-MS/MS analysis. It is filed as ADME, organism-based.
A short description of series [18]: Ratio of unbound concentration in cannulated Sprague-Dawley rat brain to plasma at 1 mg/kg, iv. It is filed as ADME, organism-based. The settings on record: read-out: K(p,uu,brain).
The subject of series [19] is Rattus norvegicus. The experiment in a line: Cognitive enhancing effect in rat assessed as increase in recognition index at 3 mg/kg, ip treated 30 mins prior test measured after 24 hrs by novel object recognition test relative to vehicle-treated control. It is filed as functional.
Series [20] addresses Cytochrome P450 2C9 (Homo sapiens, UniProt P11712). As to the kind of experiment: Inhibition of human CYP2C9. Type of series: ADME.
Series [21] deals with Rattus norvegicus. The experiment in a line: Toxicity in rat at >10 mg/kg, ip. The settings on record: in vivo. Type of series: organism-based.
In series [22] the test system is Rattus norvegicus. The experiment in a line: Cognitive enhancing effect in rat assessed as increase in recognition index at 10 mg/kg, ip treated 30 mins prior test measured after 24 hrs by novel object recognition test relative to vehicle-treated control. It is filed as functional.

Sequence of Cytochrome P450 2C9 (P11712 whole entry): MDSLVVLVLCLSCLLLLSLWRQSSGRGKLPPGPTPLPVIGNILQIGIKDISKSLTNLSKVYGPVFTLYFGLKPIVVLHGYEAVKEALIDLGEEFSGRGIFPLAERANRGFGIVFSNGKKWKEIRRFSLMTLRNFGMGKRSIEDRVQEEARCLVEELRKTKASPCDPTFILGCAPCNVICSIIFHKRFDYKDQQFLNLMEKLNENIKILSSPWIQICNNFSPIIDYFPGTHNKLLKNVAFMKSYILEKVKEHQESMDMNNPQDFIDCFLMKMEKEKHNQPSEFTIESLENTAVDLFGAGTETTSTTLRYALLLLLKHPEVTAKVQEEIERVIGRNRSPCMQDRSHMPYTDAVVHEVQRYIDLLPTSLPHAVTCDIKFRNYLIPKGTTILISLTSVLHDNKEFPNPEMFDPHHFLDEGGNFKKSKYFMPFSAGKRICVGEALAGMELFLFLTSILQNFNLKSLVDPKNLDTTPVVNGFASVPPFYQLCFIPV
Sequence of Cytochrome P450 3A4 (P08684 whole entry): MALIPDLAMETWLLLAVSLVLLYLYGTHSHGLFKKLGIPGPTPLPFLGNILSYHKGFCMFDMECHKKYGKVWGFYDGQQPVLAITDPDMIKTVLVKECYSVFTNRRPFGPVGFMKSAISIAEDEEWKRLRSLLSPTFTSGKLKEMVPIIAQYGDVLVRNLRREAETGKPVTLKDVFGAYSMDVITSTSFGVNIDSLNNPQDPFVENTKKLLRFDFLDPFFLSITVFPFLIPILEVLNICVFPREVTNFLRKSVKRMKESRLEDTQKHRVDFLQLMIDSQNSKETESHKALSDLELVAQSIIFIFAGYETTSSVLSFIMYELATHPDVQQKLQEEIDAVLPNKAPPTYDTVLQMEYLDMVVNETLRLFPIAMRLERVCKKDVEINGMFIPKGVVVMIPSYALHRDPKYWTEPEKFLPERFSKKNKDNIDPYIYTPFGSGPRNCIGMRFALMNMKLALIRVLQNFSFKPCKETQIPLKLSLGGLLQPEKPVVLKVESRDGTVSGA

In turn, `CC(C)c1cc(CNC(=O)c2ccc(F)c(OC3CCN(C)CC3)c2)on1` returned an inhibition in [1] greater than 50%. In series [2], this compound yielded an IC50 of 0.467 µM.

Turning to `COc1cc2c(cc1OC)C(=O)C(CC1CCN(Cc3ccccc3)CC1)C2` (stereo not drawn), in series [3], the Activity result is “Dose-dependent effect”.

Consider `CC(C)c1cc(CNC(=O)c2cccc(OC3CCN(C(C)C)CC3)c2)on1`, for which the inhibition in [1] is greater than 50%. Further, the IC50 in series [2] is 1.84 µM.

In the case of `COc1ccc(C(=O)NCc2cc(C(C)C)no2)cc1OC1CCN(C)CC1`, the Fu was determined as 0.35 in series [4] (4 h) and 0.67 in [5] (4 h). In addition, the Vdss in series [6] (24 h) stood at 3.2 L/kg. Besides, in series [7], the Kp worked out at 0.18. Besides, the t1/2 in series [8] (in vivo) turned out to be 0.55 h. The CLint scaled at 1 µM in series [9] amounted to 10.4 mL/min/kg; in [10] it was 95 mL/min/kg. The compound further showed a fraction unbound at 4 h in [11] of 0.36. In addition, the results for the concentration at […] in series [12] and in series [13] were 129 ng/mL and 23.4 ng/g, respectively.

The compound `CC(C)c1cc(CNC(=O)c2ccc(C#N)c(OC3CCN(C)CC3)c2)on1` registered an inhibition in series [1] greater than 50%. This compound yielded an IC50 in series [2] of 3.35 µM.

In the case of `CC(C)c1cc(CNC(=O)c2ccc(C(F)(F)F)c(OC3CCN(C)CC3)c2)on1`, the inhibition in [1] is greater than 50%. This compound also returned an IC50 in [2] greater than 10 µM.

As for `CC(C)c1cc(CNC(=O)c2ccc(Cl)c(OC3CCN(C)CC3)c2)on1`, the fraction unbound at 4 h in series [4] is 0.19; in series [5], 0.31; in series [11] it was 0.65. For the same compound, the half-inhibitory concentration (IC50) in [14] is greater than 30 µM; in series [15] it was greater than 30 µM; in series [16], greater than 30 µM; in series [20] it was greater than 30 µM; in [2] it was 0.27 µM. For the same compound, the Activity entry was “Dose-dependent effect” in series [3], 28% in series [19], “Toxic” in series [21] and 24% in series [22]. For the same compound, the inhibition in [1] is greater than 50%. In series [17], this compound came in with a clearance of 1.54 mL/min/kg. Moreover, the Kp uu in series [18] worked out at 0.71. The Vd in series [6] (Sprague-Dawley, read-out: Vdss) amounted to 0.3 L/kg. The concentration ratio (Kp) in series [7] came out at 0.34. In series [8] (Sprague-Dawley, plasma), this compound returned a half-life of 1.95 h. For the same compound, the figures for the CLint scaled at 1 µM in [9] and in series [10] were 10.4 mL/min/kg and 42.5 mL/min/kg, respectively. The concentration at […] in series [12] was 47.2 ng/mL; in [13], 16.3 ng/g.

The compound `CC(C)c1cc(CNC(=O)c2cccc(OC3CCN(C)CC3)c2)on1` gave an inhibition in series [1] greater than 50%. Moreover, half-maximal inhibition in series [2] (IC50) required 0.64 µM.

A word on the inhibition: it is the share of the control response that was lost under treatment. A higher inhibition goes with a strong effect. What is called IC50 is the concentration that inhibits the measured activity by half. A high value points to a need for much substance. In general, Vdss refers to the apparent volume that relates the amount in the body to the concentration in plasma or blood. The low end stands for confinement near the circulation, the high end for extensive tissue distribution. One may read the Kp as tissue or fluid exposure divided by exposure in the circulation. A word on the fraction unbound: it is the share of the substance not bound to proteins or other matrix. The low end stands for extensive binding, the high end for weak binding. The clearance is the rate of elimination divided by the concentration. A low value points to inefficient removal. By half-life is commonly meant how long it takes for the measured level to halve.
